*1 amine or outer side, *2 acyl side, *3 side chain or, on linkers, in order; H or OH if unused. Where a SMILES comes first, the peptide text is derived from it. [ ]: non-standard residue; d: D form. The star is where a group is joined. 4Abz = Nc1ccc(C(=O)O)cc1; CO = O=C([*:1])[*:2]; NHPh = c1ccc(N*)cc1
These compounds were tested against T1, Caspase-1 (Homo sapiens, UniProt P29466) (assay: Caspase-1 enzyme inhibition (Ki)). Conditions: not given.
T1 sequence (P29466 120-297 limits assumed): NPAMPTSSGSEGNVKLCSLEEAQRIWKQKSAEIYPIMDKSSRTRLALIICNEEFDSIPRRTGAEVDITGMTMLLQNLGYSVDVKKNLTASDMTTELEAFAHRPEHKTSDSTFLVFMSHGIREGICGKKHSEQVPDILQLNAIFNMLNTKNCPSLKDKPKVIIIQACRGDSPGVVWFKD
T1 sequence (P29466 317-404 limits assumed): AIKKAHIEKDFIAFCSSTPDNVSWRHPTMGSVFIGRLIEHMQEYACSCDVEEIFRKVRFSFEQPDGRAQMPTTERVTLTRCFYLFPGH
Assay type: biochemical
Description: Ki values for test compounds with the various caspases were obtained by the method of Margolin et al. (J. Biol. Chem., 272 pp. 7223-7228 (1997)). Assays were performed in 10 mM Tris (Sigma Corp, St Louis Mo.) pH 7.5, 1 mM Dithiothreitol (DTT, Research Organic INC, Cleveland, Ohio) and 0.1% CHAPS (Pierce, Rockford Ill.) at 37° C. For caspase-3, a solution of 8% glycerol was added to the assay buffer to improve enzyme stability. A 65 μL aliquot of the assay buffer and 5 μL aliquot of the appropriate dilutions of inhibitor in DMSO where pipetted into a 96 well plate, treated with 10 μL of caspase, then diluted in assay buffer (0.5-40 nM active protein by active site titration). A control containing DMSO but no compound was included for each determination. The plates were then incubated for 15 minutes at 37° C., before addition of the appropriate substrate (20 μL, final concentration 1-4×KM, final assay volume 100 μL) to initiate the reaction. Reaction rates were measured at 37° C. either by following the time dependant increase in absorbance at 405 nm (for the pNA substrates) or in fluorescence (Ex 390, Em 460) (for the AMC substrates). The rates obtained were plotted against inhibitor concentration and the data fit to the Morrison tight-binding equation for competitive inhibitors (Morrison, J. F., Biochem. Biophys. Acta, 185 pp. 269-286 (1969)). The substrates used for the individual assays were as follows:
Caspase-1 Suc-YVAD-pNA (Bachem, King of Prussia, Pa.) (final concentration in the assay 80 μM),

Structure (SMILES) | Ki [µM]
Cc1onc(-c2c(F)cccc2Cl)c1C(=O)N[C@H](C(=O)N1CCC[C@H]1C(=O)N[C@H](C=O)CC(=O)O)C(C)C [Example 5ae] | 0.01 to 1
CC(=O)N[C@H](Cc1c[nH]c2ccccc12)C(=O)N[C@H](C(=O)N1CCC[C@H]1C(=O)N[C@H](C=O)CC(=O)O)C(C)C [Example 5ah] (Ac-[dW]VPD-aldehyde) | 0.01 to 1
COc1ccc(CCC(=O)N[C@H](C(=O)N2CCC[C@H]2C(=O)N[C@H](C=O)CC(=O)O)C(C)C)cc1OC [Example 5o] | 0.01 to 1
CC(C)[C@H](NC(=O)C(c1ccc(Cl)cc1)c1ccc(Cl)cc1)C(=O)N1CCC[C@H]1C(=O)N[C@H](C=O)CC(=O)O [Example 5p] | 0.01 to 1
CC(C)[C@H](NC(=O)C(c1ccccc1)c1ccccc1)C(=O)N1CCC[C@H]1C(=O)N[C@H](C=O)CC(=O)O [Example 5q] | 0.01 to 1
CC(C)[C@H](NC(=O)C1(c2ccccc2)CCCC1)C(=O)N1CCC[C@H]1C(=O)N[C@H](C=O)CC(=O)O [Example 5t] | > 1

Same assay, conditions: substrate Suc-YVAD-pNA 80 μM, 37° C., pH 7.5

Structure (SMILES) | Ki [µM]
COc1ccc(C(=O)NC(C(=O)N2N=C(C(C)(C)C)SC2C(=O)NC(C=O)CC(=O)O)C(C)C)cc1 (single isomer, unassigned) [Example 46a, 3-({5-tert-butyl-3-[2-(4-methoxy-benzoylamino)-3-methyl-butyryl]-2,3-dihydro-[1,3,4]thiadiazole-2-carbonyl)-amino)-4-oxo-butyric acid] | > 1
Cc1onc(-c2c(F)cccc2Cl)c1C(=O)N[C@H](C(=O)N1CCC[C@H]1C(=O)N[C@H](C=O)CC(=O)O)C(C)C [Example 5ae] | 0.01 to 1
CC(=O)N[C@H](Cc1c[nH]c2ccccc12)C(=O)N[C@H](C(=O)N1CCC[C@H]1C(=O)N[C@H](C=O)CC(=O)O)C(C)C [Example 5ah] (Ac-[dW]VPD-aldehyde) | 0.01 to 1
CC(C)[C@H](NC(=O)Cc1ccc(Cl)c(Cl)c1)C(=O)N1CCC[C@H]1C(=O)N[C@H](C=O)CC(=O)O [Example 5an] | 0.01 to 1
Cc1ccn2c(=O)c(C(=O)N[C@H](C(=O)N3CCC[C@H]3C(=O)N[C@H](C=O)CC(=O)O)C(C)C)cnc2c1 [Example 5ap] | 0.01 to 1
CC(C)[C@H](NC(=O)c1c(-c2ccccc2)nnc2ccccc12)C(=O)N1CCC[C@H]1C(=O)N[C@H](C=O)CC(=O)O [Example 5bc] | 0.01 to 1
COc1ccc(CCC(=O)N[C@H](C(=O)N2CCC[C@H]2C(=O)N[C@H](C=O)CC(=O)O)C(C)C)cc1OC [Example 5o] | 0.01 to 1
CC(C)[C@H](NC(=O)C(c1ccc(Cl)cc1)c1ccc(Cl)cc1)C(=O)N1CCC[C@H]1C(=O)N[C@H](C=O)CC(=O)O [Example 5p] | 0.01 to 1
CC(C)[C@H](NC(=O)C(c1ccccc1)c1ccccc1)C(=O)N1CCC[C@H]1C(=O)N[C@H](C=O)CC(=O)O [Example 5q] | 0.01 to 1
CC(C)[C@H](NC(=O)C1(c2ccccc2)CCCC1)C(=O)N1CCC[C@H]1C(=O)N[C@H](C=O)CC(=O)O [Example 5t] | > 1
C[C@H](NS(=O)(=O)c1ccccc1)C(=O)N1CCC[C@H]1C(=O)N[C@H](C=O)CC(=O)O [Example 7ae] | 0.01 to 1
C[C@H](NC(=O)Nc1ccccc1)C(=O)N1CCC[C@H]1C(=O)N[C@H](C=O)CC(=O)O [Example 7af] ({NHPh-CO}-Ala-Pro-Asp-aldehyde) | 0.01 to 1
C[C@H](NC(=O)Oc1ccccc1)C(=O)N1CCC[C@H]1C(=O)N[C@H](C=O)CC(=O)O [Example 7ag] | 0.01 to 1
C[C@H](NC(=O)c1ccc(F)c(F)c1)C(=O)N1CCC[C@H]1C(=O)N[C@H](C=O)CC(=O)O [Example 7al] | 0.01 to 1
C[C@H](NC(=O)c1ccc(N)cc1)C(=O)N1CCC[C@H]1C(=O)N[C@H](C=O)CC(=O)O [Example 7aq] (H-[4Abz]APD-aldehyde) | 0.01 to 1
C[C@H](NC(=O)c1ccc(OC(F)(F)F)cc1)C(=O)N1CCC[C@H]1C(=O)N[C@H](C=O)CC(=O)O [Example 7i] | 0.01 to 1
CC(=O)N(C)c1ccc(C(=O)N[C@@H](C)C(=O)N2CCC[C@H]2C(=O)N[C@H](C=O)CC(=O)O)cc1 [Example 7j] | > 1
Cc1nc(C)c(C(=O)N[C@@H](C)C(=O)N2CCC[C@H]2C(=O)N[C@H](C=O)CC(=O)O)s1 [Example 7r] | 0.01 to 1

Structure (SMILES) | Ki [µM]
CC(C)[C@H](NC(=O)c1ccc(N)c(Cl)c1)C(=O)N1CCN(C)C[C@H]1C(=O)N[C@H](C=O)CC(=O)O [Example 17a] | 0.01 to 1
C[C@H](NC(=O)C(=O)c1ccccc1)C(=O)N1CC(F)(F)C[C@H]1C(=O)N[C@H](C=O)CC(=O)O [Example 27c] | 0.01 to 1
Cc1cc(C(=O)N[C@@H](C)C(=O)N2CC(F)(F)C[C@H]2C(=O)N[C@H](C=O)CC(=O)O)cc(C)c1O [Example 27j] | 0.01 to 1
CC(=O)Nc1c(Cl)cc(C(=O)N[C@@H](C)C(=O)N2CC(F)(F)C[C@H]2C(=O)N[C@H](C=O)CC(=O)O)cc1Cl [Example 27k] | 0.01 to 1
CC(C)[C@H](NC(=O)c1cccc2ccccc12)C(=O)N[C@@H](C)C(=O)N[C@H](C=O)CC(=O)O [Example 29f] | < 0.01
CC(C)C[C@@H](C(=O)N[C@H](C=O)CC(=O)O)N1CC[C@@H](NC(=O)c2nccc3ccccc23)C1=O [Example 32a] | > 1
Cc1cc(C(=O)N[C@@H]2CCN([C@@H](CC(C)C)C(=O)N[C@H](C=O)CC(=O)O)C2=O)cc(C)c1O [Example 32b] | > 1
CC(C)C[C@@H](C(=O)N[C@H](C=O)CC(=O)O)N1CC[C@@H](NC(=O)c2ccc3[nH]nnc3c2)C1=O [Example 32c] | > 1
CC(C)C[C@@H](C(=O)N[C@H](C=O)CC(=O)O)N1CC[C@@H](NC(=O)c2c(Cl)cccc2Cl)C1=O [Example 32e] | 0.01 to 1
CN(NC(=O)N1CCCC1C(=O)NC(C=O)CC(=O)O)C(=O)c1nccc2ccccc12 (stereo not drawn) [Example 34, 3-({1-[N-(isoquinoline-1-carbonyl)-N-methyl-hydrazinocarbonyl]-pyrrolidine-2-carbonyl}-amino)-4-oxo-butyric acid] | > 1
CC(Nc1ccccc1)C(=O)N1CCCC1C(=O)NC(C=O)CC(=O)O (stereo not drawn) [Example 121, 4-Oxo-3-{[1-(2-phenylamino-propionyl)-pyrrolidine-2-carbonyl]-amino}-butyric acid] | > 1
C[C@H](NC(=O)c1cc(F)c(N(C)C)c(F)c1)C(=O)N1CCC[C@H]1C(=O)N[C@H](C=O)CC(=O)O [Example 122n, 3-({1-[2-(4-Dimethylamino-3,5-difluoro-benzoylamino)-propionyl]-pyrrolidine-2-carbonyl}-amino)-4-oxo-butyric acid] | 0.01 to 1
C[C@H](NC(=O)c1ccc(N)c(Cl)c1)C(=O)N1CCC[C@@H]1C(=O)N[C@H](C=O)CC(=O)O [Example 122o, 3-({1-[2-(4-Amino-3-chloro-benzoylamino)-propionyl]-pyrrolidine-2-carbonyl}-amino)-4-oxo-butyric acid] | > 1
CCC(=O)Nc1ccc(C(=O)N[C@@H](C)C(=O)N2CCC[C@H]2C(=O)N[C@H](C=O)CC(=O)O)cc1Cl [Example 122t, 3-({1-[2-(3-Chloro-4-propionylamino-benzoylamino)-propionyl]-pyrrolidine-2-carbonyl}-amino)-4-oxo-butyric acid] | 0.01 to 1
C[C@H](NC(=O)c1ccc(NC(=O)Cc2ccccc2)c(Cl)c1)C(=O)N1CCC[C@H]1C(=O)N[C@H](C=O)CC(=O)O [Example 122u, 3-({1-[2-(3-Chloro-4-phenylacetylamino-benzoylamino)-propionyl]-pyrrolidine-2-carbonyl}-amino)-4-oxo-butyric acid] | < 0.01
CC(C)CC(=O)Nc1ccc(C(=O)N[C@@H](C)C(=O)N2CCC[C@H]2C(=O)N[C@H](C=O)CC(=O)O)cc1Cl [Example 122v, 3-[(1-{2-[3-Chloro-4-(3-methyl-butyrylamino)-benzoylamino]-propionyl}-pyrrolidine-2-carbonyl}-amino]-4-oxo-butyric acid] | 0.01 to 1
COc1c(C(=O)NC(C)C(=O)N2CC(F)(F)CC2C(=O)NC(C=O)CC(=O)O)ccc(NC(C)=O)c1Cl (stereo not drawn) [Example 123c, 3-({1-[2-(4-Acetylamino-3-chloro-2-methoxy-benzoylamino)-propionyl]-4,4-difluoro-pyrrolidine-2-carbonyl)-amino)-4-oxo-butyric acid] | 0.01 to 1
Nc1ccc(C(=O)NCC(=O)N2CCC[C@H]2C(=O)N[C@H](C=O)CC(=O)O)cc1Cl [Example G1, 3-({1-[(4-Amino-3-chloro-benzoylamino)-acetyl]-pyrrolidine-2-carbonyl}-amino)-4-oxo-butyric acid] | > 1

From US20030232986A1, “Inhibitors of caspases” (Vertex Pharmaceuticals Incorporated, priority 1998, published 2003)
